Results on 13 molecules are retold here after ChEMBL document CHEMBL4414598, “Trifluorinated Pyrimidine-Based A2B Antagonists: Optimization and Evidence of Stereospecific Recognition” (J Med Chem, 2019).

The target in assay [1] is T1, Adenosine receptor A1 (Homo sapiens) (UniProt P30542).
T1 sequence (whole entry): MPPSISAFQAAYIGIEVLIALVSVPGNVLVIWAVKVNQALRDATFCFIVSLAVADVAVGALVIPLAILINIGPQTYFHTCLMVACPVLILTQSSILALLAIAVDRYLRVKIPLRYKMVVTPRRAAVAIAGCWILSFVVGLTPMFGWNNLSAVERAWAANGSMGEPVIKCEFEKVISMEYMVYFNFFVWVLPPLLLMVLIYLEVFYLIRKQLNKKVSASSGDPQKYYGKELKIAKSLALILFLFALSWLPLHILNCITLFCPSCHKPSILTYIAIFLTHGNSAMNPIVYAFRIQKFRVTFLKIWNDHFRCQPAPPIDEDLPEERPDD
Nature of the assay: Displacement of [3H]DPCPX from human recombinant A1 receptor expressed in CHOA1 cell membranes at 1 uM incubated for 60 mins by radioligand binding competition assay relative to control. (In a radioligand displacement assay an active substance lowers the binding of a labelled ligand.)

Assay [2] addresses T2, Adenosine receptor A3 (Homo sapiens) (UniProt P0DMS8).
T2 sequence (whole entry): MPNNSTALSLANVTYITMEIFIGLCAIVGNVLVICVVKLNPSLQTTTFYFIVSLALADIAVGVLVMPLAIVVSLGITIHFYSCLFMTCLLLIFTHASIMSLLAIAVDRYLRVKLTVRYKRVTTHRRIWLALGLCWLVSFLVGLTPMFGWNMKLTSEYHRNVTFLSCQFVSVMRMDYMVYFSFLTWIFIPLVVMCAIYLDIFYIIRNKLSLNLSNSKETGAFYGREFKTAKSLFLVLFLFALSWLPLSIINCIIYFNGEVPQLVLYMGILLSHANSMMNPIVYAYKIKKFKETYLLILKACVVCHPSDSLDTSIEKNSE
The assay is described as follows: Displacement of [3H]NECA from human A3 receptor expressed in human HeLa cell membranes at 1 uM incubated for 180 mins by radioligand binding competition assay relative to control.

The target in assay [3] is T3, Adenosine receptor A2a (Homo sapiens, UniProt P29274). The assay is described as follows: Displacement of [3H]ZM241385 from human recombinant A2A receptor expressed in human HeLa cell membranes at 1 uM incubated for 30 mins by radioligand binding competition assay relative to control.
T3 sequence (P29274 whole entry): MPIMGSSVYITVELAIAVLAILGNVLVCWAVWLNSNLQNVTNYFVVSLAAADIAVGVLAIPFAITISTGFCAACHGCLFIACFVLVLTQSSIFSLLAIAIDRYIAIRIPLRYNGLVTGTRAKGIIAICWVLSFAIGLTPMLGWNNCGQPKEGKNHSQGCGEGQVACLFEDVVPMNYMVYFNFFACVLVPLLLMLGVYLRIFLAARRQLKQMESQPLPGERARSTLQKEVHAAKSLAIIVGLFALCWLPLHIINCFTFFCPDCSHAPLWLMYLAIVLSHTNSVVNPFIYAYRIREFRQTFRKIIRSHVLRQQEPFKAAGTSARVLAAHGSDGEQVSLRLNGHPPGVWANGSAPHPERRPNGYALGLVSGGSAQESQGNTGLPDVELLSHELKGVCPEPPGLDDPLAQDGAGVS
The species named for assay [4] is Homo sapiens. Nature of the assay: Selectivity index, ratio of Ki for displacement of [3H]NECA from human A3 receptor expressed in human HeLa cell membranes incubated for 180 mins by radioligand binding competition assay to Ki for displacement of [3H]DPCPX from human recombinant A2B receptor expressed in human HEK293 cell membranes at 1 uM incubated for 30 mins by radioligand binding competition assay.

Assay [5] is filed under the species Homo sapiens. Nature of the assay: Selectivity index, ratio of Ki for displacement of [3H]DPCPX from human recombinant A1 receptor expressed in CHOA1 cell membranes incubated for 60 mins by radioligand binding competition assay to Ki for displacement of [3H]DPCPX from human recombinant A2B receptor expressed in human HEK293 cell membranes at 1 uM incubated for 30 mins by radioligand binding competition assay.

Assay [6] is filed under the species Homo sapiens. Nature of the assay: Selectivity index, ratio of Ki for displacement of [3H]ZM241385 from human recombinant A2A receptor expressed in human HeLa cell membranes incubated for 30 mins by radioligand binding competition assay to Ki for displacement of [3H]DPCPX from human recombinant A2B receptor expressed in human HEK293 cell membranes at 1 uM incubated for 30 mins by radioligand binding competition assay.

For assay [7], the target named is T4, Adenosine receptor A2b (Homo sapiens, UniProt P29275).
T4 sequence (P29275 whole entry): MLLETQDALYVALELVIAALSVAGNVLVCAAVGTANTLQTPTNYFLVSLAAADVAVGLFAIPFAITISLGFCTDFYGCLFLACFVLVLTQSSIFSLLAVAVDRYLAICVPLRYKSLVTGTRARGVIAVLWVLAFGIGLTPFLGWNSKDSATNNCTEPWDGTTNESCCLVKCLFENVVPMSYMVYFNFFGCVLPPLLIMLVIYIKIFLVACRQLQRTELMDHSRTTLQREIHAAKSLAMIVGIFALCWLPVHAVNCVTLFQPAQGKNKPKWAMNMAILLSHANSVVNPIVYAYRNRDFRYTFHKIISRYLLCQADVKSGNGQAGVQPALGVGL
The assay is described as follows: Displacement of [3H]DPCPX from human recombinant A2B receptor expressed in human HEK293 cell membranes incubated for 30 mins by radioligand binding competition assay.

Assay [8] deals with T5, Adenosine receptor A1 (Homo sapiens, UniProt P30542).
T5 sequence (P30542 whole entry): T1 sequence (whole entry)
Nature of the assay: Displacement of [3H]DPCPX from human recombinant A1 receptor expressed in CHOA1 cell membranes incubated for 60 mins by radioligand binding competition assay.

Assay [9] addresses T3, Adenosine receptor A2a. The assay is described as follows: Displacement of [3H]ZM241385 from human recombinant A2A receptor expressed in human HeLa cell membranes incubated for 30 mins by radioligand binding competition assay.
Assay [10] has as its target T6, Adenosine receptor A3 (Homo sapiens, UniProt P0DMS8).
T6 sequence (P0DMS8 whole entry): T2 sequence (whole entry)
The assay is described as follows: Displacement of [3H]NECA from human A3 receptor expressed in human HeLa cell membranes incubated for 180 mins by radioligand binding competition assay.

Broadly, the inhibition is the share of the control response that was lost under treatment. Broadly, the Ki is a dissociation constant, usually derived from enzyme kinetics or from competition with a known ligand.

With `CC1=C(C(=O)OC(C)C(F)(F)F)C(c2ccoc2)n2c(nc3ccccc32)N1` (racemic), the values for the inhibition in assay [1], in [2] and in [3] were 2%, 3% and 3%, respectively. Moreover, the Ratio Ki in [4], in assay [5] and in assay [6] was above 1000 throughout. Moreover, in assay [7], the Ki was 0.0523 µM.
For the molecule `CC(C)OC(=O)C1=C(C(F)(F)F)Nc2nc3ccccc3n2C1c1ccoc1` (racemic), the results for the inhibition in [1], in [2] and in [3] were 8%, 23% and 23%, respectively. Moreover, the Ratio Ki in assay [4], in [5] and in assay [6] was above 1000 each time. Also, in assay [7], the Ki was 0.0492 µM.
With `CC1=C(C(=O)OC(C)C)C(c2ccco2)n2c(nc3ccccc32)N1` (stereo not drawn), the values for the Ki in [8], in [9] and in [10] were 0.02 µM, 0.028 µM and 0.002 µM, respectively. The values for the inhibition in assay [1], in assay [2] and in [3] were 20%, 2% and 28%, respectively.
For the molecule `CC1=C(C(=O)OCC(F)(F)F)C(c2ccoc2)n2c(nc3ccccc32)N1` (racemic), the inhibition in assay [1] was determined as 14%; in assay [2], 1%; in assay [3], 11%. Moreover, the Ratio Ki in assay [4], in assay [5] and in assay [6] was above 1000 each time. For the same molecule, the Ki in assay [7] turned out to be 0.0421 µM.
Turning to `CC1=C(C(=O)O[C@H](C)C(F)(F)F)C(c2ccco2)n2c(nc3ccccc32)N1` (mixture of isomers), the inhibition in assay [1] was found to be 12%; in assay [2] it was 23%; in assay [3], 11%. In assay [7], the Ki came out at 0.017 µM.
With `CC1=C(C(=O)O[C@@H](C)C(F)(F)F)[C@@H](c2ccco2)n2c(nc3ccccc32)N1`, the inhibition in assay [1] was 22%; in assay [2] it was 21%; in assay [3], 5%. In addition, in assay [7], the Ki was 0.00873 µM.
For the molecule `CC1=C(C(=O)O[C@H](C)C(F)(F)F)[C@@H](c2ccco2)n2c(nc3ccccc32)N1`, the inhibition worked out at 12% in assay [1], 14% in assay [2] and 1% in [3]. Further, the Ki in assay [7] is 0.00691 µM.
In the same order, the values of `CCOC(=O)C1=C(C(F)(F)F)Nc2nc3ccccc3n2C1c1ccsc1` (racemic) are 16%, 29%, 13% and 0.118 µM.
For `CC(C)OC(=O)C1=C(C(F)(F)F)NC(=O)NC1c1ccco1` (racemic), the inhibition was determined as 11% in [1], 5% in assay [2] and 24% in assay [3]. The Ki in assay [7] was 0.238 µM.
In the same order, the values of `CCOC(=O)C1=C(C(F)(F)F)NC(=O)NC1c1ccsc1` (racemic) are 32%, 3%, 46% and 0.575 µM.
Regarding `CC1=C(C(=O)OCC(F)(F)F)[C@@H](c2ccco2)n2c(nc3ccccc32)N1`, the figures for the inhibition in assay [1], in [2] and in [3] were 9%, 7% and 1%, respectively. In addition, the Ki in assay [7] was determined as 0.0112 µM.
As to `CC1=C(C(=O)OCC(F)(F)F)C(c2ccco2)NC(=O)N1` (racemic), the inhibition in assay [1] turned out to be 10%; in assay [2] it was 1%; in [3], 1%. For the same molecule, the Ki in assay [7] was determined as 0.157 µM.
In the case of `CCOC(=O)C1=C(C(F)(F)F)Nc2nc3ccccc3n2[C@@H]1c1ccoc1`, the inhibition in assay [1] stood at 11%; in assay [2] it was 3%; in assay [3], 9%. Further, the Ki in [7] is 0.0137 µM.
